Measurements taken from patent US20240180793A1, “CORE STICK-TYPE OIL DISPERSION SOLID COSMETIC COMPOSITION HAVING IMPROVED SPREADABILITY” (COSMAX, INC., priority 2021, published 2024).
In brackets after ≈: the same amount, converted by molar mass.

Target: mushroom tyrosinase
Assay: Mushroom tyrosinase inhibition assay (whitening effect)
Assay type: biochemical
Conditions: mushroom tyrosinase 1000 units/mL, L-tyrosine, pH 6.5, 25° C. for 30 minutes, absorbance at 490 nm
Method: Then, the absorbance was recorded at 490 nm by a microplate reader to determine the amount of dopachrome generated. […] The expression of the percentage of tyrosinase activity inhibition is as follows.
Tyrosinase activity inhibitory effect (%)=(1−(A−B)/C)×100 [Equation] • A: Absorbance of sample • B: Absorbance of color control • C: Absorbance of control

- IC50 (tyrosinase activity inhibition): 630.1 mg/L (≈ 2310 µM)
SMILES: OC[C@H]1O[C@@H](Oc2ccc(O)cc2)[C@H](O)[C@@H](O)[C@@H]1O [Arbutin]
